Test results: ChEMBL document CHEMBL1201862, “PubChem BioAssay data set” (2004)
Active and inactive are the calls of the source.

Assays:
Chaperone protein dnaK = Chaperone protein dnaK (Escherichia coli, UniProt C3TRK2); assay: E. coli DnaK binders, calorimetric Kd – biophysical, isothermal titration calorimetry, beta-domain, full-length DnaK, orthogonal assay for DnaK modulator project, SAR follow-up (AID 1495)
Streptococcus = assay: GAS UMAA2166 growth inhibition – luminescence, BacTiterGlo, counter-screen for streptokinase expression inhibitor project, dose response (AID 1915); assay type: functional, organism-based;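 further: potency for reduction of bacterial viability or growth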
[1] = tested on: Streptococcus sp. 'group A'; assay: Streptococcus pyogenes SK(-)GAS viability under kanamycin – luminescence, BacTiterGlo, confirmation, counter-screen for streptokinase expression inhibitor project, dose response (AID 1900); assay type: functional, organism-based
[2] = NIH3T3 cell viability loss – ATP luminescence, mouse fibroblasts, counter-screen, dose response (AID 2010); assay type: functional, cell-based;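 further: cells exposed to compound for about 90 hours before reading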
Streptokinase A = target: T1, Streptokinase A (Streptococcus pyogenes serotype M1, UniProt P10520); assay: viability-normalized secreted streptokinase activity reduction – plasminogen activation absorbance, OD405, dose response (AID 1914); assay type: functional, Streptococcus pyogenes M1 GAS;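 further: secreted streptokinase activity via plasminogen activation per viability signal from cell pellet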
T1 sequence (P10520 whole entry): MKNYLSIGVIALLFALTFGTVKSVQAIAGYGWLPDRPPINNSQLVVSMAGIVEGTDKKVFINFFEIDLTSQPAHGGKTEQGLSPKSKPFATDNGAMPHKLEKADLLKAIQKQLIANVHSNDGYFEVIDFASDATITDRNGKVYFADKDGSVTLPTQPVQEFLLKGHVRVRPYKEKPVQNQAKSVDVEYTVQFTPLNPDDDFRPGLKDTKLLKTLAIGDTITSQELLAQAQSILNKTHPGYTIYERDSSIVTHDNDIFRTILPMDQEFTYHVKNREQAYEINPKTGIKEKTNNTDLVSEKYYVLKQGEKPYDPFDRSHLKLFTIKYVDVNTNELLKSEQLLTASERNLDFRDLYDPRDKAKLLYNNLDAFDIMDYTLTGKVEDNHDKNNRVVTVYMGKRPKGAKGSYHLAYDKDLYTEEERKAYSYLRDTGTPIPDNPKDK

[3] = Trypanosoma cruzi growth suppression in host cells – NIH3T3 host cells, beta-gal luminescence, confirmation (AID 2044); assay type: functional, cell-based;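 further: intracellular parasites grown in NIH/3T3 mouse fibroblasts as host cells; luminescent beta-galactosidase reporter signal from transgenic T. cruzi replicating inside host cells; inhibitors lower the luminescence signal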
[4] = target: Serine/threonine-protein phosphatase PP1-alpha catalytic subunit (Homo sapiens, UniProt P62136); assay: inhibition of protein phosphatase 1 activity – biochemical, fluorescence, dose response (AID 2403);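 further: phosphatase turnover of OMFP into fluorescent 3-O-methylfluorescein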
Serine/threonine-protein phosphatase PP1-alpha catalytic subunit, sequence (P62136 whole entry): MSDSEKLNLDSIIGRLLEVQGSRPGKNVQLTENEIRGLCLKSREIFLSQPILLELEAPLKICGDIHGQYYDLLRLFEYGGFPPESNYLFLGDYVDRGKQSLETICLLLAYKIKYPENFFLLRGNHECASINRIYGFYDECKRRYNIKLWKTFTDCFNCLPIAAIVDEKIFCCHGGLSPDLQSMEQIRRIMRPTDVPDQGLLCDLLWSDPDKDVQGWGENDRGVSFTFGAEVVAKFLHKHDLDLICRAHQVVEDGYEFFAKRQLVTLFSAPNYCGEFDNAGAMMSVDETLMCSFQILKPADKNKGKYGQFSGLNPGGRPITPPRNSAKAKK

[5] = target: Serine/threonine-protein phosphatase (Homo sapiens, UniProt Q9BPW0); assay: Counterscreen for inhibitors of PP1: fluorescence-based biochemical high throughput dose response assay to identify inhibitors of Protein Phosphatase 5 (PP5). [Related pubchem assays: 2034 (Summary (PP5 inhibitors)), 1987 (PP5 inhibitors in singlate), 2235 (PP1 inhibitors in singlate)]
Serine/threonine-protein phosphatase, sequence (Q9BPW0 whole entry): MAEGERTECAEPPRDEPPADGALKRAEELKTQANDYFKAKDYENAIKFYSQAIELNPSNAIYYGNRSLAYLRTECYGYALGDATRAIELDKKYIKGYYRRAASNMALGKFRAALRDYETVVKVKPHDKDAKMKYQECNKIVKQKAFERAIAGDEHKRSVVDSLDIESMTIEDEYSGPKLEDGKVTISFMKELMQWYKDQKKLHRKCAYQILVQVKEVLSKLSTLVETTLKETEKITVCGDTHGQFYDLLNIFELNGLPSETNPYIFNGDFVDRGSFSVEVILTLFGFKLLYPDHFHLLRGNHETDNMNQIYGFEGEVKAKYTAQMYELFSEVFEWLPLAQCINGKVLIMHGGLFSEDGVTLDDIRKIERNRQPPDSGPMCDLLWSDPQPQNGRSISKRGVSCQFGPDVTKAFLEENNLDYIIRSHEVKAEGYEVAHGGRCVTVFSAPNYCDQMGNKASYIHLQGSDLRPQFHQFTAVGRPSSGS

[6] = Luminescence-based counterscreen assay for KLF5 inhibitors: dose response cell-based high throughput screening assay to identify cytotoxic compounds using the IEC-6 intestinal epithelial cell line. [Related pubchem assays: 1700 (Primary screen.), 1834 (Confirmation screen.), 1858 (Summary AID.), 1905 (Counterscreen.)]; assay type: functional
[7] = target: T2, Microphthalmia-associated transcription factor (Homo sapiens, UniProt O75030); assay: reducers of TRPM1 reporter luminescence, concentration series – cell-based, SK-MEL-5, cherry-picked, set 3, MITF inhibitor project, dose response (AID 493073); assay type: functional;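 further: SK-MEL-5 melanoma cells with luciferase driven by the MITF target TRPM1 promoter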
T2 sequence (O75030 whole entry): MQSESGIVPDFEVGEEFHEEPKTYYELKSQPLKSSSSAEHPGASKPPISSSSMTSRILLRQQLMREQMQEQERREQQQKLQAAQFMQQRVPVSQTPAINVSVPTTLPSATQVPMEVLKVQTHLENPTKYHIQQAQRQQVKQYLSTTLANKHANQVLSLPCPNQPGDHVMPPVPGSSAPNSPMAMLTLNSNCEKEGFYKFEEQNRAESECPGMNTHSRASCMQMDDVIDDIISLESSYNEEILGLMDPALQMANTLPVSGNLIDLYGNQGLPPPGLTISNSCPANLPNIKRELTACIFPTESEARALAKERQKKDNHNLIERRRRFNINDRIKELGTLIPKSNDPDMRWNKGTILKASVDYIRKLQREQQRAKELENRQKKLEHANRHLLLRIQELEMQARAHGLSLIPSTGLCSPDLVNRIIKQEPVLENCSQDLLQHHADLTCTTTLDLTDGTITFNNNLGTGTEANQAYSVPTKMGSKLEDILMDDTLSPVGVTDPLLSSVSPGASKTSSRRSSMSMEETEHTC

[8] = target: T3, Eukaryotic translation initiation factor 2-alpha kinase 3 (Homo sapiens, UniProt Q9NZJ5); assay: Dose response cell-based high-throughput screening assay to measure PERK inhibition. [Related pubchem assays: 1416 ]; assay type: functional
T3 sequence (Q9NZJ5 whole entry): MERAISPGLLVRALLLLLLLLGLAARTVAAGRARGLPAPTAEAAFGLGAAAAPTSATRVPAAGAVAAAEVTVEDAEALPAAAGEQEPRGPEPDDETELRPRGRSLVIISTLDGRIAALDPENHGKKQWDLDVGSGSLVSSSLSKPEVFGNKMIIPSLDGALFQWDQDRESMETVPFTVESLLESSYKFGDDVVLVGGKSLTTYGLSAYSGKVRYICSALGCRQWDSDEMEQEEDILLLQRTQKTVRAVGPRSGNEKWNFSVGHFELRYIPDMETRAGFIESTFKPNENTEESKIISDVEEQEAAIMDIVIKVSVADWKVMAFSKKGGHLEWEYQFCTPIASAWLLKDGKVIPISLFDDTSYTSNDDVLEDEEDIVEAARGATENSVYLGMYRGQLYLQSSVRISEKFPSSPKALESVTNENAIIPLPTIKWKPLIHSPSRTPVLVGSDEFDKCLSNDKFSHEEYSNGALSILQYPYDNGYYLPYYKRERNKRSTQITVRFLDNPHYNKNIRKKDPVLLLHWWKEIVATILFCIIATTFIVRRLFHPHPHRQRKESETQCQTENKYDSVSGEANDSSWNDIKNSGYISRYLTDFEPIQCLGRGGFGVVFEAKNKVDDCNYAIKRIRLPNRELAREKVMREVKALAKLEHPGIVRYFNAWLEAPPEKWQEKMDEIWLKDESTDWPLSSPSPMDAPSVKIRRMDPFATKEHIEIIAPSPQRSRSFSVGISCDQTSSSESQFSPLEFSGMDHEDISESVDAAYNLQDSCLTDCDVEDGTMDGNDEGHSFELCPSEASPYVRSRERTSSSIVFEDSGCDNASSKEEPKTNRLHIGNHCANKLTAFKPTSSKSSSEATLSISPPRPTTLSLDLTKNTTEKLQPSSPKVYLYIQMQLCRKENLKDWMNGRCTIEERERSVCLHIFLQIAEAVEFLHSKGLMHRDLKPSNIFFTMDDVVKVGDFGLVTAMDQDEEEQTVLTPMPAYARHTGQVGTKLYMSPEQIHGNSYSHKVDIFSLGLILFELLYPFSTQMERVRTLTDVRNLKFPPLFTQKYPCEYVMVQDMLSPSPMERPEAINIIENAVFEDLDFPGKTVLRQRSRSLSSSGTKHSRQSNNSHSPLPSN

[9] = target: T3, Eukaryotic translation initiation factor 2-alpha kinase 3; assay: Counterscreen assay for PERK inhibitors: Dose response cell-based high throughput screening assay to measure inhibition of PERK at 6 hours. [Related pubchem assays: 1522, 1416 ]; assay type: functional
Melanocortin receptor 4 = Melanocortin receptor 4 (Homo sapiens, UniProt P32245); assay: inhibitors of MC4R cAMP signaling – cell-based, TR-FRET, biased antagonists, dose response (AID 602298); assay type: functional;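 further: antagonist potency against agonist-stimulated cAMP production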
Melanocortin receptor 4, sequence (P32245 whole entry): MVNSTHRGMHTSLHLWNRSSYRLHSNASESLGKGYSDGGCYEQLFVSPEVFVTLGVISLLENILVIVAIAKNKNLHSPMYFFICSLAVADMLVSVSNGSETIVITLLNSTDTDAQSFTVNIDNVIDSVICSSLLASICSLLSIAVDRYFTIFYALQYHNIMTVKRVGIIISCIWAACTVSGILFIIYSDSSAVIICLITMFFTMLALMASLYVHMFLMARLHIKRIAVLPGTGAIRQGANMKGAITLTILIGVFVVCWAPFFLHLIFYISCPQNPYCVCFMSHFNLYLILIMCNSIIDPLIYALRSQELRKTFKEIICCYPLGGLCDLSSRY

[10] = cAMP pathway inhibition in counterscreen cell line – TR-FRET cAMP detection, counter-screen for MC4R biased antagonist project, dose response (AID 602305); assay type: functional, cell-based;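 further: U2OS cells stimulated with forskolin near its EC80 as the cAMP inducer; potency is for inhibition of forskolin-stimulated cAMP signaling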
[11] = antiviral protection against BTV-induced cell death – arbovirus, BSR cells, confirmation (AID 1250); assay type: functional;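 further: protection from viral cytopathic effect measured as cell viability by ATP luminescence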
[12] = M. tuberculosis H37Rv growth inhibitors, H37Rv strain (AID 1626); assay type: functional
Aminopeptidase N = target: T4, Aminopeptidase N (Plasmodium falciparum FcB1/Columbia, UniProt O96935); assay: malaria alanyl aminopeptidase activity blockers – biochemical, fluorogenic H-Leu-NHMec substrate, 1536-well (AID 1445); set-up: species or system Plasmodium falciparum 3D7, 3D7
T4 sequence (O96935 whole entry): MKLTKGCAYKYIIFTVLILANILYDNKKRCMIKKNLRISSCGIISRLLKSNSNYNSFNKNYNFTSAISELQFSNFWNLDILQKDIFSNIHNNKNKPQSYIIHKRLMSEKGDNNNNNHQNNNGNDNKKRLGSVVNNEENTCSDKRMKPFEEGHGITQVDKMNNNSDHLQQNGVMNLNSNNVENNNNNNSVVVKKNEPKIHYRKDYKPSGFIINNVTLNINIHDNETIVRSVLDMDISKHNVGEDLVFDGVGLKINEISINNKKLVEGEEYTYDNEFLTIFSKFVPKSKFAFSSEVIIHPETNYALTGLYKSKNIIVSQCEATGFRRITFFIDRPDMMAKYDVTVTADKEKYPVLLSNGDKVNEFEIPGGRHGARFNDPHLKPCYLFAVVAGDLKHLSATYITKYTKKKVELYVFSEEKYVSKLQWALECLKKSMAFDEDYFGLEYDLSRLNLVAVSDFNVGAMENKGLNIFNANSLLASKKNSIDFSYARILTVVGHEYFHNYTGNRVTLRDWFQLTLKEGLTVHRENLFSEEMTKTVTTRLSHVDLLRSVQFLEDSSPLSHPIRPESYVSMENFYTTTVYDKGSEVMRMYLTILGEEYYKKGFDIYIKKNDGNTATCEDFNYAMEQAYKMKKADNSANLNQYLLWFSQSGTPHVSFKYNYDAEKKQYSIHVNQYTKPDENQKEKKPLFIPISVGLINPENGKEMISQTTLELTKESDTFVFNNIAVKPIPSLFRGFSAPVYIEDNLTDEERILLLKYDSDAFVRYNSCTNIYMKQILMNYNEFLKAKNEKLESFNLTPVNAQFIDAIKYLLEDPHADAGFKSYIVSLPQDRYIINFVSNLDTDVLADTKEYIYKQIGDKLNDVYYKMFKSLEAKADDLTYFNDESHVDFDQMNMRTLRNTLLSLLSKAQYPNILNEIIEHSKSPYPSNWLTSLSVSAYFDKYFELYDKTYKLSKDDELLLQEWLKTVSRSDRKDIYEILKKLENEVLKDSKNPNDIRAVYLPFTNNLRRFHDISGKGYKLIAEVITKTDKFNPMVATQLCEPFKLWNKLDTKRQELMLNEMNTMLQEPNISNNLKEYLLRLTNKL

Vero [13] = assay: host cell viability loss, Vero E6 – synthesized analogs, cytotoxicity control for West Nile virus antiviral project, SAR follow-up (AID 2244); assay type: functional; conditions: Chlorocebus sabaeus
Vero [14] = assay: Vero cell viability after compound exposure – synthesized analogs, set II, cytotoxicity control for West Nile virus antiviral project, SAR follow-up (AID 2402); assay type: functional; conditions: Chlorocebus sabaeus
[15] = viability of uninfected HEp-2 cells – cell-based, HTS, cytotoxicity control for RSV inhibitor project, dose response (AID 2410); assay type: functional; conditions: human respiratory syncytial virus
[16] = target: Acyl-homoserine lactone acylase PvdQ (Pseudomonas aeruginosa (strain LESB58), UniProt Q9I194); assay: PvdQ acylase enzyme activity blockers – biochemical, fluorescence, plate reader and imaging, cherry-picks, dose response (AID 493231)
Cytochrome P450 2D6 = Cytochrome P450 2D6 (Homo sapiens, UniProt P10635); assay: qHTS Assay for Inhibitors and Substrates of Cytochrome P450 2D6. [Related pubchem assays: 410 ]; assay type: ADME; conditions: read-out: Potency
Cytochrome P450 2D6, sequence (P10635 whole entry): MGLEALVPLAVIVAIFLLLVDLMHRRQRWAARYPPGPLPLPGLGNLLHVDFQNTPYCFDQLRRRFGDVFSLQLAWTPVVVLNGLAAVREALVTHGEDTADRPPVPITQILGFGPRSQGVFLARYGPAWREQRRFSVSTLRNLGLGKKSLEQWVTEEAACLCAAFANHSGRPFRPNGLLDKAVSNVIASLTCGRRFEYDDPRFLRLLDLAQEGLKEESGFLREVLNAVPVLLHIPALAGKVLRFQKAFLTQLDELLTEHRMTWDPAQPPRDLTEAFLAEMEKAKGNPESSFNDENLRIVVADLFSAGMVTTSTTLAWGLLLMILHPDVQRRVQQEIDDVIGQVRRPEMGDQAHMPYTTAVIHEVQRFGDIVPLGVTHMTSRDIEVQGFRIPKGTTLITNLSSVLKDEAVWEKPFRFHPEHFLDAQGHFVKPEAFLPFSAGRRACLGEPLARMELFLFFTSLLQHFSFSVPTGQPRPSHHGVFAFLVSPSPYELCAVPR

[17] = target: Voltage-gated N-type calcium channel alpha-1B subunit/Amyloid beta A4 precursor protein-binding family A member 1 (Homo sapiens, UniProt Q00975+Q02410); assay: disruptors of Mint-PDZ/N-type channel peptide interaction – biochemical, HTRF, set 2, SAR follow-up (AID 434980); assay type: functional
[18] = target: Melanin-concentrating hormone receptor 1 (Homo sapiens, UniProt Q99705); assay: Late-stage fluorescence-based counterscreen for antagonists of the G-protein coupled receptor 7 (GPR7): cell-based dose response assay to identify antagonists of the melanin-concentrating hormone receptor 1 (MCHR1). [Related pubchem assays (depositor defined):AID1861, AID1880, AID1952, AID2148, AID2251, AID2257, AID485339]; assay type: functional;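 further: stimulated with 30 nM MCH peptide agonist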
Melanin-concentrating hormone receptor 1, sequence (Q99705 whole entry): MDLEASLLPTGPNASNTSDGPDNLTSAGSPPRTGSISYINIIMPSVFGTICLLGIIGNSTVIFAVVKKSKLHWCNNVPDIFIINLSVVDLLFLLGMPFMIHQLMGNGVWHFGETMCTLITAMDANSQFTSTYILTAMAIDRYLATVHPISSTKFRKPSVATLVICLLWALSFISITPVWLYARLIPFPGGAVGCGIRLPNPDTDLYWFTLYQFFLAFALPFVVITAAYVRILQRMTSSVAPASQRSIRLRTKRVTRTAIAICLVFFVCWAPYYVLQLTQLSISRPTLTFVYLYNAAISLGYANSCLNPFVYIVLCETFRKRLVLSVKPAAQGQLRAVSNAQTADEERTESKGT

[19] = target: Heat shock 70 kDa protein 1A (Homo sapiens, UniProt P0DMV8); assay: inhibition of Hsp70 binding activity – biochemical, fluorescence polarization, SAR follow-up (AID 1072)
Heat shock 70 kDa protein 1A, sequence (P0DMV8 whole entry): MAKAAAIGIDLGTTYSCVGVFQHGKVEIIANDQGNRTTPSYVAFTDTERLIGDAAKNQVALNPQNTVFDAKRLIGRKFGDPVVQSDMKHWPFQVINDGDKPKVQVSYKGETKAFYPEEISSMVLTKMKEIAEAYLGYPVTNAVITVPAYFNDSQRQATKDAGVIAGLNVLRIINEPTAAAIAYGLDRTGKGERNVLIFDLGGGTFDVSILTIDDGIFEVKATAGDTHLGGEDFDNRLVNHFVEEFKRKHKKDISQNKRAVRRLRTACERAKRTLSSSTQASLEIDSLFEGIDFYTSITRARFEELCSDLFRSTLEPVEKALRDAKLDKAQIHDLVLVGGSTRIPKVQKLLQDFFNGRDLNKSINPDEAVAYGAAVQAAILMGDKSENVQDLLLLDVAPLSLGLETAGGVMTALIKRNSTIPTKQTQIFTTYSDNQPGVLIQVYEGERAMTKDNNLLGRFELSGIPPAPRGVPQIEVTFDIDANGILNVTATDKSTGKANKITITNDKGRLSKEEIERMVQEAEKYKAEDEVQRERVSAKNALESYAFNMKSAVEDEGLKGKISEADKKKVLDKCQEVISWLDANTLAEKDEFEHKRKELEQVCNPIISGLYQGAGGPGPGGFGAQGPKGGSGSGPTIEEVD

[20] = target: Heat shock cognate 71 kDa protein (Homo sapiens, UniProt P11142); assay: In Vitro Hsc70 Dose Response Fluorescence Polarization Assay. [Related pubchem assays: 1072 ]
Heat shock cognate 71 kDa protein, sequence (P11142 whole entry): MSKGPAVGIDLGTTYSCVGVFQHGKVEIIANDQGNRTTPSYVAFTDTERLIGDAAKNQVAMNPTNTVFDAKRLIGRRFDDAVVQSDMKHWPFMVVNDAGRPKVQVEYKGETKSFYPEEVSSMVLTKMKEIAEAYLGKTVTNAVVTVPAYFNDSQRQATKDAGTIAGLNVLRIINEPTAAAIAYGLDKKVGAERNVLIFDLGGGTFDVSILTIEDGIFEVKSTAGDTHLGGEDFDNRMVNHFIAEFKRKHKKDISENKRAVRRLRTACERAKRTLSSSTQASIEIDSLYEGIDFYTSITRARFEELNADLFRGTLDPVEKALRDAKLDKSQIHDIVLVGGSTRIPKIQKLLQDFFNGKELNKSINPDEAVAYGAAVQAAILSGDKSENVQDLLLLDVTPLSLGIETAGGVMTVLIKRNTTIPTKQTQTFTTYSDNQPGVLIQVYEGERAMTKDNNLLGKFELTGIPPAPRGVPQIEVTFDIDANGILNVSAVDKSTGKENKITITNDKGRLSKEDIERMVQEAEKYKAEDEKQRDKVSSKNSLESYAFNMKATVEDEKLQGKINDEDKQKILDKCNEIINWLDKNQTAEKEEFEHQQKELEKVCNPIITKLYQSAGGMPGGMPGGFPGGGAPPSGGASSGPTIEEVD

Genome polyprotein = Genome polyprotein (dengue virus type 2, UniProt P29990); assay: flavivirus cap methylation enzyme inhibition – biochemical, confirmation dose response, primary screen (AID 588689); assay type: functional
Staphylococcus aureus = assay: Inhibitors of Bacterial Quorum Sensing Structure Activity Relationship (SAR) Analysis: Dose Response Assay. [Related pubchem assays: 700, 527 ]; assay type: functional, organism-based

O=C(Nc1ccc2[nH]ccc2c1)c1cccs1
Kd (Chaperone protein dnaK): 12.7 µM (active)

COc1ccc(OCCCC(=O)Nc2nc(-c3ccccn3)cs2)cc1
EC50 (Streptococcus): > 150 µM (not active) | EC50 [1]: 31.2 µM (active) | EC50 [2]: 4.35 µM (active) | EC50 (Streptokinase A): > 150 µM (not active) | EC50 [3]: 3.24 µM (active) | IC50 [4]: 4.59 µM (active) | IC50 [5]: > 67 µM (not active)

CCCc1ccc(-c2ccc(/C=C/C(=O)O)cc2)nc1
IC50 [6]: > 39.8 µM (not active) | AC50 [7]: 0.039 µM (active)

COc1cc([N+](=O)[O-])cc2sc(NC(=O)C(C)(C)C)nc12
EC50 [8]: > 55.7 µM (not active) | EC50 [9]: > 55.7 µM (not active)

CCOc1ccc2nc(NC(=O)CSc3nc(O)c(C#N)c(-c4ccccc4)n3)sc2c1
IC50 (Melanocortin receptor 4): > 64.6 µM (inactive) | IC50 [10]: > 64.6 µM (inactive) | IC50 [11]: 37.9 µM (active) | IC50 [12]: > 100 µM (active) | IC50 (Aminopeptidase N): 24.1 µM (active)

CCCN(C(=O)c1ccccc1Cl)c1nc(-c2ccc(OC)cc2)cs1
CC50 (Vero [13]): > 40 µM (active) | CC50 (Vero [14]): 63.2 µM (active)

COc1ccc(CCNC(=O)c2ccc(-c3ccc([N+](=O)[O-])cc3Cl)o2)cc1
IC50 (cells): 25.5 µM (active) | CC50 [15]: 33.6 µM (active)

CC1SCC(NC(=O)c2cccc(Cl)c2)CS1 (centres undefined)
AC50 [16]: > 100 µM (inactive)

COc1ccc2c(=O)cc(-c3ccc(O)cc3)oc2c1
AC50 (Cytochrome P450 2D6): 15.8 µM (inconclusive)

O=C(Nc1ncc(-c2ccccc2)o1)c1cc(-c2ccco2)nc2ccccc12
IC50 [17]: > 56.8 µM (inactive)

COc1ccc(Oc2c(Br)cnn(-c3ccc(C(C)C)cc3)c2=O)cc1
IC50 [18]: 0.72 µM (active)

O=C(O)C1CCCCC1c1c2ccc(=O)c(O)c-2oc2c(O)c(O)ccc12 (centres undefined)
IC50 [19]: 9.85 µM (active) | IC50 [20]: 42.4 µM (active)

CC(C)c1ccc(S(=O)(=O)c2nnn3c2nc(O)c2ccccc23)cc1 [SAVIRIN]
IC50 (Genome polyprotein): 51.5 µM (active) | IC50 (Staphylococcus aureus): 0.25 µM (active)
